Measurements published in patent publication US6465615B1 (AstraZeneca AB, priority 2001, dated 2002).
“Also recorded” adds a separate entry of the source.

Assays:
[1] = Stability / hygroscopicity at ambient room temperature and humidity; assay type: physicochemical; settings: for stability at standard room temperature and humidity (ambient conditions): Preparation 3 after about 5 hours standing, TGA
Method: The partially dehydrated material was allowed to stand for about 5 hours.

[2] = cited from earlier work
[3] = physchem
[4] = Solubility measured visually; settings: relative to crystalline lisinopril dihydrate (Zestril)

## NCCCC[C@H](N[C@@H](CCc1ccccc1)C(=O)O)C(=O)N1CCC[C@H]1C(=O)O.O [Preparation 3]
[1]
  stability at standard room temperature and humidity (ambient conditions): not a stable monohydrate
[1]; crystals returned to room temperature after heating, evolved water reabsorbed from atmosphere
  hygroscopicity: strongly hygroscopic

## NCCCC[C@H](N[C@@H](CCc1ccccc1)C(=O)O)C(=O)N1CCC[C@H]1C(=O)O [lisinopril]
[2]; following oral administration
  time to peak serum concentrations: ≤ 7 h
[2]; multiple dosing
  effective half-life of accumulation: about 12.6 hours

## NCCCC[C@H](N[C@@H](CCc1ccccc1)C(=O)O)C(=O)N1CCC[C@H]1C(=O)O.O [monohydrate lisinopril form 1]
[1]; listed as form 1
  stability at standard room temperature and humidity (ambient conditions): stable

## NCCCC[C@H](N[C@@H](CCc1ccccc1)C(=O)O)C(=O)N1CCC[C@H]1C(=O)O [monohydrate lisinopril form 2, 1-(N^2-[(S)-1-carboxy-3-phenylpropyl]-L-lysyl)-L-proline]
[1]
  stability at standard room temperature and humidity (ambient conditions): stable
[3]
  solubility: 400 to 450 mg/mL
[4]
  solubility compared with lisinopril dihydrate: far greater solubility; also recorded: much more soluble; also recorded: substantially more soluble
